Measured values reported in patent US10737072B2, “Control catheters and methods for pulmonary suffusion and related therapies” (SUFFUSION TECHNOLOGIES LLC, priority 2012, dated 2020).
Read-outs that look alike come from different tables or passages of the source.

How the values were obtained:
[1] = system: primary and metastatic cancer; conditions: et al., cited from earlier work
[2] = system: primary and metastatic cancer; conditions: et al., cited from earlier work; remark: listed apart in the source
stage IV NSCLC [3] = assay: Thoracoscopic lung suffusion, phase I clinical trial; assay type: in vivo, human
Excerpt: The term “suffusion” has been defined as the slow diffuse permeation of the tissues by an injectate during arterial or venous occlusion. Unlike methods for arterial infusion or isolated perfusion, those for suffusion require neither permanent occlusion nor recirculation. The technique involves isolating chemotherapy into the lung by interventional radiologic control of the pulmonary artery and endoscopic control of the pulmonary veins. The suffusion method was first described in a canine model in 2002. A minimally invasive approach and its short-term potential were established using a non-toxic tracer compound. Rapid permeation of the lung and 75% of tracer remaining isolated the lung for 30 minutes was observed.
One phase I clinical trial on four stage IV NSCLC patients has been conducted.

stage IV NSCLC [4] = conditions: cited from earlier work
[5] = Burt, 2000, 8 cases of metastatic sarcoma
[6] = Schroder, 2002, 4 cases of metastatic sarcoma, following metastectomy
[7] = Hendriks, 2004, 16 cases of resectable pulmonary metastases, followed by metastectomy

## CO[C@@]12[C@H](COC(N)=O)C3=C(C(=O)C(C)=C(N)C3=O)N1C[C@@H]1N[C@@H]12 [Mitomycin C]
[1]; Neyazaki, 1969, 27 cases
  tumor volume reduced in: 52%

## COc1cccc2c1C(=O)c1c(O)c3c(c(O)c1C2=O)C[C@@](O)(C(=O)CO)C[C@@H]3O[C@H]1C[C@H](N)[C@H](O)[C@H](C)O1 [Doxorubicin]
[2]; [5]
  Pulmonary fibrosis (number of cases): fibrosis (1), cases
  reduced pulmonary function (number of cases): function (7) cases
  response: 0% response

## N.N.[Cl][Pt][Cl] [Cisplatin]
Stage IV NSCLC [3]; total of ten patients treated by suffusion (unpublished data)
  patients who could not tolerate suffusion: One of 10
Stage IV NSCLC [3]; unpublished data, growth of tumor in other parts of the body despite systemic chemotherapy
  patients with evaluable disease showing control or reduction of the main tumor in the suffused lung: 4 of 5
[1]; So, 2004, 3 cases of locally advanced NSCLC, and carinal resection
  complete response: 100% complete
Stage IV NSCLC [4]; Demmy, et al., 2009, 4 cases of stage IV NSCLC, with systemic chemotherapy
  reduction in tumor volume: 14%-96%
Stage IV NSCLC [4]; four stage IV NSCLC patients, systemic chemotherapy began within 2 weeks of the suffusion
  Tumor volume reduced: 14% to 96%
[2]; Ratto, 1996, 6 cases of metastatic sarcoma
  Interstitial and alveolar edema (number of cases): (2) cases
[2]; [6]
  disease-free after 1 year: 75% disease-
  localized pulmonary edema (number of cases): (4), reduced cases
  reduced pulmonary function at 3 weeks (number of cases): weeks (3) cases

## N[C@@H](Cc1ccc(N(CCCl)CCCl)cc1)C(=O)O [Melphalan]
[2]; [7]
  Chemical pneumonitis (number of cases): pneumonitis (2), cases
  localized pulmonary edema (number of cases): (3), pneumonia cases
  pneumonia (number of cases): (1), cases
  pneumothorax (number of cases): pneumothorax (1) cases
